Common to all, as to format: cell-based
For one experiment, the system named is HSV-1 F. Nature of the experiment: Plaque reduction assay, HSV-1 F. Particulars: Table 1, plaque reduction, Vero cells. Here is the method: (§1) Antiviral activity of compounds against herpesviruses such as HSV-1, HSV-2, or HCMV can be measured using plaque reduction assays. 0.1 ml of media containing approximately 50 PFU of virus is added to each well of a 24-well cell culture dish containing a confluent monolayer of cells (Vero cells for HSV-1 and HSV-2, HFF cells for HCMV). Compounds are dissolved in 100% DMSO and diluted in 100% DMSO as 200× stocks of the desired final drug concentration. Typically 5-6 two-fold dilutions are prepared for each compound. Dilutions of compounds are then added to media containing 0.8% CMC resulting in a final 1× drug concentration. After the virus-infected cells have incubated for 1 h at 37° C., the virus innoculum is removed and 1 ml of media containing 0.8% CMC and the various concentrations of compound is added to each well of the dish. The dish is incubated at 37° C. for approximately 2-3 days (HSV-1 and HSV-2) or 6-9 days (HCMV) to allow sufficient growth of virus to form plaques in the cell monolayer. Plaques can be observed and counted microscopically or by staining the cells with 0.1% crystal violet in 20% ethanol. […] Antiviral activity of a compound is expressed as the concentration of compound predicted to reduce the number of plaques in a well by 50% (IC50). The IC50 values are calculated by plotting the per cent inhibition vs. concentration of compound using EXCEL software for linear regression.
(§2) A panel of viruses consisting of four strains of HSV-1 (KOS, F, DJL, Patton) and three strains of HSV-2 (MS, 35D, 186) are tested in a plaque reduction assay against four different 4-oxo-DHQ compounds (#1, 2, 4, 5 as shown in FIG. 1), and one 4-oxo-DHTP compound (#3 as shown in FIG. 1) and against Acyclovir. The six drugs inhibited replication of the seven virus strains with IC50 values ranging from 2-10 μM (Table 1). In order to select for 4-oxo-DHQ resistant mutants, HSV-1 strains KOS, F, and DJL along with HSV-2 strains 186 and MS are serially passaged in the presence of 20 uM compound 1. Following the seventh passage, 4-oxo-DHQ resistant virus from each strain are plaque purified three times and high-titer stocks are made.
Background: Plaques are areas of infected cells; plaque reduction assays count them against a control.

For experiment [1], the system named is 4-oxo-DHQ resistant HSV-1, HSV-2 and HCMV mutants. The experiment is described as follows: Plaque reduction assay, 4-oxo-DHQ resistant mutants compared with parent virus. The settings on record: HSV-1 and HSV-2 mutants. Here is the method: (§3) Antiviral activity of compounds against herpesviruses such as HSV-1, HSV-2, or HCMV can be measured using plaque reduction assays. 0.1 ml of media containing approximately 50 PFU of virus is added to each well of a 24-well cell culture dish containing a confluent monolayer of cells (Vero cells for HSV-1 and HSV-2, HFF cells for HCMV). Compounds are dissolved in 100% DMSO and diluted in 100% DMSO as 200× stocks of the desired final drug concentration. Typically 5-6 two-fold dilutions are prepared for each compound. Dilutions of compounds are then added to media containing 0.8% CMC resulting in a final 1× drug concentration. After the virus-infected cells have incubated for 1 h at 37° C., the virus innoculum is removed and 1 ml of media containing 0.8% CMC and the various concentrations of compound is added to each well of the dish. The dish is incubated at 37° C. for approximately 2-3 days (HSV-1 and HSV-2) or 6-9 days (HCMV) to allow sufficient growth of virus to form plaques in the cell monolayer. Plaques can be observed and counted microscopically or by staining the cells with 0.1% crystal violet in 20% ethanol. […] The IC50 values are calculated by plotting the per cent inhibition vs. concentration of compound using EXCEL software for linear regression. […]

For a further experiment, the system named is HSV-2 MS-M1 (V826A). Nature of the experiment: Plaque reduction assay, 4-oxo-DHQ resistant HSV-2 MS-M1. The settings on record: Table 2, mutant V826A; read-out: IC50 (uM), HSV-2 MS-M1. Here is the method:
as §1
Vero cells are plated out at a density of 3.5×10^5 cells per well in a six well tissue culture plate. Cells are infected with HSV-1 KOS at a multiplicity of infection (moi) of 0.1 pfu/cell and 1 h post infection the cells are overlayed with 3 ml media containing 20 uM of a 4-oxo-DHQ. Cultures are incubated for 20 h at 37° C., freeze/thawed to release cell-associated virus, and 0.1 ml of culture is used to infect a new monolayer of Vero cells (one passage). Serial passage is repeated seven times in the presence of 20 uM drug. Virus isolates are then plaque purified three times prior to preparation of stocks. 4-oxo-DHQ resistant HSV-1 and HSV-2 may also be selected by the marker transfer method described below using wild-type HSV DNA and the corresponding mutant HSV polymerase gene.
as §2

The next experiment has as its system HSV-2 MS. Nature of the experiment: Plaque reduction assay, HSV-2 MS. Particulars: Table 1, plaque reduction, Vero cells; read-out: IC50 (uM), HSV-2 MS. Here is the method:
as §1, §2

The subject of another experiment is HSV-2 186-M1 (V828A). Nature of the experiment: Plaque reduction assay, 4-oxo-DHQ resistant HSV-2 186-M1. The settings on record: Table 2, mutant V828A. Here is the method: as §3

Where only a bound is given, the exact number is not on record here.

The values that follow come from patent US6682892B2, “Method for treating herpes viruses” (priority 2000, dated 2004).

Turning to `Cn1cc(C(=O)NCc2ccc(Cl)cc2)c(=O)c2cc(/C=C\CO)cc(F)c21` [Compound 1], the concentration for half-maximal inhibition (IC50) in the experiment on HSV-1 F was 2.5 µM; with HSV-2 MS-M1 (V826A), greater than 20 µM; in the experiment on HSV-2 MS, 2 µM; in the experiment with HSV-2 186-M1 (V828A), greater than 20 µM. Besides, in experiment [1], the “increase in IC50, HSV mutants selected with compound 1” value is reported as greater than 10 fold.

The IC50 is the concentration that gives 50% inhibition.
